Experimental findings from ChEMBL document CHEMBL5143518, “Pyridazino-pyrrolo-quinoxalinium salts as highly potent and selective leishmanicidal agents targeting trypanothione reductase” (Eur J Med Chem, 2022) are described below.

A short description of data set [1]: Selectivity index, ratio of LC50 for cytotoxicity against human THP-1 cells to EC50 of leishmanicidal activity against axenic amastigote stage of Leishmania infantum MCAN/ES/89/IPZ229/1/89.
The nature of data set [2]: Cytotoxicity against human THP-1 cells assessed as reduction in cell proliferation incubated for 24 hrs by propidium iodide staining based flow cytometry.
Data set [3] concerns Leishmania infantum. Description: Leishmanicidal activity against GFP-expressing axenic amastigote stage of Leishmania infantum MCAN/ES/89/IPZ229/1/89 infected in human THP-1 macrophage cells assessed as reduction in intracellular amastigotes incubated for 48 hrs by propidium iodide staining based flow cytometry. The data set is classed as functional, organism-based. The following applies: MCAN/ES/89/IPZ229/1/89, THP-1, 48 h. In general terms: Flow cytometry measures light scatter and fluorescence of single cells or particles in a stream.

Data set [4] deals with Leishmania infantum. Description: Leishmanicidal activity against axenic amastigote stage of Leishmania infantum MCAN/ES/89/IPZ229/1/89 assessed as reduction of proliferation of amastigotes incubated for 24 hrs by propidium iodide staining based flow cytometry. Type of data set: functional, organism-based. The following applies: MCAN/ES/89/IPZ229/1/89, 24 h.
In data set [5] the target is T1, Trypanothione reductase (Leishmania infantum, UniProt A4HSF7). Kind of data set: Non competitive type inhibition of recombinant His-tagged Leishmania infantum TryR oxidoreductase activity expressed in Escherichia coli BL21 (DE3) assessed as inhibition constant using NADPH and varying concentration of TS2 as substrate by double reciprocal Lineweaver-Burk plot analysis.
T1 sequence (A4HSF7 whole entry): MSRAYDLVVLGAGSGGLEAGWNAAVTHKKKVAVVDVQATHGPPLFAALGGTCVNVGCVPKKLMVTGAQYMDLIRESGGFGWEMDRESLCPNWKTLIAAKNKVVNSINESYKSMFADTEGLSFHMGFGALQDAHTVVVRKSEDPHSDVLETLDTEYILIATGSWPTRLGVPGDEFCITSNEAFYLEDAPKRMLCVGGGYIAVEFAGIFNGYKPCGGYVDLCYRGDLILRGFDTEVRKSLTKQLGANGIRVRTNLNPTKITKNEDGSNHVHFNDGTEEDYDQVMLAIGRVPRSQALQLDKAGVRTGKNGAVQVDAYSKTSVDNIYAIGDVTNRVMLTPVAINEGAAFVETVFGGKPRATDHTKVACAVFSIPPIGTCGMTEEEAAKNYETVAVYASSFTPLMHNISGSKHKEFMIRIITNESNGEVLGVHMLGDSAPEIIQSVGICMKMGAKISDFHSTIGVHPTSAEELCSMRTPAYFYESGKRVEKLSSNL

Data set [6] concerns the target T1, Trypanothione reductase. Description: Inhibition of recombinant His-tagged Leishmania infantum TryR oxidoreductase activity expressed in Escherichia coli BL21 (DE3) using TS2 and NADPH as substrate by DTNB-reagent based spectrophotometric method.
In data set [7] the target is Trypanothione reductase (Leishmania infantum) (UniProt A4HSF7). Description: Uncompetitive type inhibition of recombinant His-tagged Leishmania infantum TryR oxidoreductase activity expressed in Escherichia coli BL21 (DE3) assessed as inhibition constant using TS2 and varying concentration of NADPH as substrate by double reciprocal Lineweaver-Burk plot analysis.
Chain of Trypanothione reductase (Leishmania infantum) (A4HSF7 as listed by the source): as the sequence (A4HSF7 whole entry) above
The target is the same in data set [8]. Kind of data set: Inhibition of recombinant His-tagged Leishmania infantum TryR expressed in Escherichia coli BL21 (DE3) assessed as TryR mediated cytochrome c reduction in presence of NADPH at 10 uM by spectrophotometric method.

Each structure is given as a SMILES string. Active and inactive are the calls of the source. The calls are words filed in the database; no cut-off is given here.

On to `CCCCCCCCCCCCCCCCOP(=O)([O-])OCC[N+](C)(C)C` [MILTEFOSINE], for which, in data set [1], the selectivity ratio worked out at 14.8. Further, in data set [2], the CC50 (as a rule, the concentration giving 50% cytotoxicity) at 24 h was determined as 7.69 µM. Moreover, the EC50 – broadly, the concentration that produces a half-maximal response – in the data set on Leishmania infantum [3] was 0.55 µM; in the data set with Leishmania infantum [4] it was 0.52 µM.
As to `CCc1cc2c3ccc(Br)n3c3cc(Cl)ccc3[n+]2nc1CC`, the Ki – broadly, a measure of affinity in units of concentration, obtained from inhibition or displacement – on Trypanothione reductase [5] is 2.83 µM. On Trypanothione reductase [6], the IC50 (in general, the point on the concentration scale where inhibition reaches its midpoint) was 2.98 µM. Further, the alphaKi in data set [7] was 1.37 µM. Moreover, the selectivity ratio in data set [1] came to 85.6. Moreover, in data set [2], the CC50 at 24 h amounted to 6.85 µM. The inhibition entry in data set [8] was “Active”. Also, the EC50 is 1.23 µM in the data set on Leishmania infantum [3] and 0.08 µM in the data set with Leishmania infantum [4].
Regarding `CCc1cc2c3cccn3c3cc(Cl)ccc3[n+]2nc1CC`, the half-maximal inhibitory concentration (IC50) at Trypanothione reductase [6] came out at 25.7 µM. In addition, the selectivity ratio in data set [1] came out at 304. For the same molecule, the CC50 at 24 h in data set [2] was 24.3 µM. In addition, the EC50 with Leishmania infantum [3] was found to be 3.1 µM; in the data set with Leishmania infantum [4] it was 0.08 µM.
Take `CCN(CC)CCCC(C)Nc1c2ccc(Cl)cc2nc2ccc(OC)cc12` (stereo not drawn) [QUINACRINE]: the IC50 on Trypanothione reductase [6] is 13.5 µM.
